Patent publication US20100168146A1, “Composition Comprising (R)-Spiro[L-Azabicyclo[2.2.2]Octane-3,2'(3'H)-Furo[2,3-B]Pyridine (AZD0328) and its Use in the Treatment of Alzheimer's Disease, ADHD or Cognitive Dysfunction” (priority 2008, published 2010)

Assays:
rats [1] = assay: Intestinal motility (charcoal meal test, glass bead test); type: in vivo; details: rat, oral
Method: Effects of AZD0328 on small intestinal and colorectal motility were investigated in rats using the charcoal meal test and the glass bead test, respectively (Table 3). In the first part, evaluating intestinal transit, a test meal containing charcoal as a non-absorbable marker was administered to rats. In the second part, effects of oral administration of AZD0328 on colo-rectal transit time was evaluated.

FFX rats = assay: Hippocampal LTP in vivo in FFX rats; set-up: species or system rat; details: 0.3 mg/kg
Method: AZD0328 reversed a deficit in hippocampal long-term potentiation (LTP) in FFX Sprague Dawley rats (Table 2). […] 0.3 mg/kg of AZD0328 was ineffective in this test.

marmoset monkeys = assay: Behavioral effects / tolerability; type: in vivo; details: im, first five minutes after administration
Method: Prior to testing its effects on cognitive task performance in marmoset monkeys, the tolerability of AZD0328 was assessed. (Table 3). Behaviours noted in individual marmosets during the five minutes immediately following drug administration were salivation, vomiting, scratching, defecation and increased activity.

[2] = Predicted human PK / exposure (allometric scaling of rat and monkey data)
Method: (§1) The 50% bioavailability of AZD0328 in human was conservatively selected based on the observations from rat, dog and monkey.
Given the findings in the 1 month repeated dose toxicology studies in the rats, it is reasonable to set human systemic exposure limits following single dose administration equal to the exposure observed at NOAEL for renal tubule vacuolation. The corresponding human equivalent dose, based on the FDA guidance (via allometric scaling of body surface area) is, 0.35 mg/kg. A dose of 0.03 mg/day is proposed as a starting dose.

dog Purkinje fibre = assay: Dog isolated cardiac Purkinje fibres, action potentials; details: stimulation 0.5 and 1 Hz
Method: Effects of AZD0328 on cardiac action potentials were assessed in 4 dog Purkinje fibre preparations. (Table 3). The following action potential parameters were measured at the stimulation frequencies 0.5 and 1 Hz: action potential duration at 50% (APD50), 70% (APD70) and 90% (APD90) of repolarisation; the maximum velocity of the action potential upstroke (Vmax); the action potential amplitude (APA) and the resting membrane potential (RMP). At both stimulation frequencies, AZD0328 caused a concentration-dependent prolongation of APD50, APD70 and APD90, with significant effects at 5.6 μM and above. There was also an indication of proarrhythmic potential of the compound. A 10% increase in APD90 in the isolated dog Purkinje fibre is seen at concentrations between 5.6 and 16.8 μm.

rats [3] = assay: Modified Irwin screen; type: in vivo; details: Wistar rat, oral gavage, up to 4 h postdose
Method: The effects of AZD0328 were assessed in the modified Irwin screen, a behavioural, neurological and overt toxicity scoring protocol battery designed to detect a wide range of side effects (Table 3). The findings in the Irwin screen serve as a gross indication of CNS-mediated effects.

[4] = biological target: α7 receptor binding sites (Rattus norvegicus, UniProt Q05941); type: in vivo; details: sc, 2-4 h
rhesus monkeys = assay: Spatial delayed response (SDR) task; type: in vivo, rhesus monkey (macaca mulatta)
Text: AZD0328 at low doses improved performance in the spatial delayed response test in monkeys. Rhesus monkeys were trained in a spatial delayed response task. In this task, food-motivated monkeys observed one of several spatially-displaced wells being baited with a food reward. After a brief delay during which a shutter is drawn and the wells are covered, the monkey must indicate the position of the baited well to receive the food reward. The performance of groups of monkeys was titrated into a narrow range by changing the number of wells or the duration of the delay. Monkeys were tested extensively to establish baseline performance before being administered drug or vehicle. Intramuscular administration of 0.00048 or 0.0016 mg/kg AZD0328 evoked a sustained increase in the percentage of correct responses monkeys made when compared with responses of vehicle-treated monkeys.
Rhesus monkey were trained in a spatial delayed response task. Middle doses of AZD0328 (0.0016 and 0.00048 mg/kg im) evoked a sustained improvement in rhesus monkey performance, while a higher dose (0.48 mg/kg) and a lower dose (0.000016 mg/kg) transiently impaired performance of the task (Table 2).

guinea pigs = assay: Cardiac repolarisation in anesthetised guinea pig (MAP); type: in vivo; details: highest dose, total plasma concentration 8.5 μM
Method: Effects of AZD0328 on ventricular repolarisation and intracardiac conduction were investigated in 6 anesthetised and ventilated guinea pigs (Table 3). For the electrophysiological characterisation, monophasic action potentia MAP duration at 90% repolarisation (MAPD90), ventricular conduction velocity (MAP rise time), and atrioventricular (AV) conduction time were recorded during cardiac pacing. AZD0328 had dose-dependent effects on the electrophysiological activities in the guinea pig heart. At the highest dose, resulting in a total plasma concentration of 8.5 μM, MAPD90 and AV conduction time were prolonged by 20% and 13%, respectively. It is concluded that AZD0328 delayed ventricular repolarisation in the anesthetised guinea pig by 10% at a total plasma concentration of 2.4 μM.

Pgp transporter = Pgp transporter (Homo sapiens, UniProt P08183); assay: Digoxin transport, cell-based assay; type: in vitro ADME
Text: as §1

rats [5] = assay: Spontaneous locomotor activity; type: in vivo; details: Wistar rat, oral gavage, 90 min session
Method: AZD0328 was investigated for possible effects on spontaneous locomotor activity in rats (n=6/group)(Table 3). Animals were individually placed in locomotor activity boxes for a 90 min test session. Movements within the box were measured by infrared beams, and activity was assessed as ambulatory counts, stereotypic counts, vertical counts, and resting time.

Chain of Pgp transporter (P08183 whole entry): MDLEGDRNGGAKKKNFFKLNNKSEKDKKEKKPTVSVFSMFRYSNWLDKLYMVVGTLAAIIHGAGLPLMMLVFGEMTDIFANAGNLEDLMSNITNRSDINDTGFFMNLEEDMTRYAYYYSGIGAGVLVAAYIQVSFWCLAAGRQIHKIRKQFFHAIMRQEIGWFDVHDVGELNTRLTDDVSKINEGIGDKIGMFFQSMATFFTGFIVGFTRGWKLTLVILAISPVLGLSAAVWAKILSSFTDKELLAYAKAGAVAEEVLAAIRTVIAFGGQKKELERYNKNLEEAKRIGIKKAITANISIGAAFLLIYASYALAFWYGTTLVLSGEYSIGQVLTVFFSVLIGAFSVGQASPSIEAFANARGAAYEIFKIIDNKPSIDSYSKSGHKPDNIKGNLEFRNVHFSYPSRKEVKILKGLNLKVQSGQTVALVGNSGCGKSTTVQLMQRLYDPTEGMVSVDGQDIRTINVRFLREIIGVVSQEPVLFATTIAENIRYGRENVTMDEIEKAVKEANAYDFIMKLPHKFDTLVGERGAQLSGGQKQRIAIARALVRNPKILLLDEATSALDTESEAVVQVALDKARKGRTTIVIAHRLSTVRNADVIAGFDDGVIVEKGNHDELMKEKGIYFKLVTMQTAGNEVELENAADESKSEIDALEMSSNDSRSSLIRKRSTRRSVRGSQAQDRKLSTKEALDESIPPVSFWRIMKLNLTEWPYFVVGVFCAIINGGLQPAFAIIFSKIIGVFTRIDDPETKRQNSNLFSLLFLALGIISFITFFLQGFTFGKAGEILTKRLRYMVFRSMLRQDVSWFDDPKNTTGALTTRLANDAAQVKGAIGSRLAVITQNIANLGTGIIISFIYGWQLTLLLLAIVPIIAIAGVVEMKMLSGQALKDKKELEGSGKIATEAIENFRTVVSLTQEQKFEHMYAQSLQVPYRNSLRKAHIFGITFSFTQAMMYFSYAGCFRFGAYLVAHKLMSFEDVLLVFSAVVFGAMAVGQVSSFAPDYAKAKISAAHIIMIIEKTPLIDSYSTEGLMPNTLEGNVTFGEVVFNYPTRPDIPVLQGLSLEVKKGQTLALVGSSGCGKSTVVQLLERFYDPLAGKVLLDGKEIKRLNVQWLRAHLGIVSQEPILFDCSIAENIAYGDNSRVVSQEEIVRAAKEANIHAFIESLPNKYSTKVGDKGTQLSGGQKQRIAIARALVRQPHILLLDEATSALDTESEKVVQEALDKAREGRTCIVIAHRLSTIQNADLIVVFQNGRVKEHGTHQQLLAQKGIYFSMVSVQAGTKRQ
Chain of α7 receptor binding sites (Q05941 23-502): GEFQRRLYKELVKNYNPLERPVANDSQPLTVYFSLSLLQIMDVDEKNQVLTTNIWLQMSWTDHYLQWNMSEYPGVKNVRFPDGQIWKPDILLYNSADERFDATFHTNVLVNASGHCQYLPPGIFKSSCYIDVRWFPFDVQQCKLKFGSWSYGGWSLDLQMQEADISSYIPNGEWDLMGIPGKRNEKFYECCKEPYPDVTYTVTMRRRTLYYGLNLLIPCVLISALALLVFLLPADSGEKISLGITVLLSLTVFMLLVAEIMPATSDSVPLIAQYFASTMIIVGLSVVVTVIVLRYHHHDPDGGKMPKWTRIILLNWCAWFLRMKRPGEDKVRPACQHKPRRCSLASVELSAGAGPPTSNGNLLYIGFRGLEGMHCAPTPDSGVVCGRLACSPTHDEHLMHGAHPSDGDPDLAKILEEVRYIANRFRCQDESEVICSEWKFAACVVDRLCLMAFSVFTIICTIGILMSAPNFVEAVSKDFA

c1cnc2c(c1)C[C@@]1(CN3CCC1CC3)O2 [AZD0328, (R)-Spiro[1-azabicyclo[2.2.2]octane-3,2′(3′H)-furo[2,3-b]pyridine]]
Dose with inhibition of small- and large-intestinal motility (rats [1]): ≥ 130 µmol/kg
Hippocampal LTP (FFX rats): ineffective
Doses with salivation, vomiting, scratching, defecation and increased activity (marmoset monkeys): administration with 0.03-3 mg/kg
Predicted free human therapeutic plasma level [2]: 0.5 to 1.7 nM
Human equivalent dose of the rat NOAEL (allometric scaling of body surface area) ([2]; NOAEL for renal tubule vacuolation): 350 µg/kg
Bioavailability in human, conservatively selected ([2]; human): 50%
Concentration with significant prolongation of APD50, APD70 and APD90 (dog Purkinje fibre): ≥ 5.6 µM
Dose with sedation (rats [3]): 129.8 mg/kg up to 4 h postdose.
Active dose, [125I]-α-bungarotoxin binding ex vivo increased receptor number [4]: 0.1 µg/kg
Duration of improved performance after a single dose (rhesus monkeys; four of nine monkeys improved at middle doses): more than one month
Lower doses with no effect or transient impairment (rhesus monkeys; rhesus monkeys): ≥ 0.16 µg/kg
Percent correct responses (rhesus monkeys; rhesus monkeys, 0.016 mg/kg): non-significant increase
AV conduction time prolongation (guinea pigs): 13%
MAPD90 prolongation (guinea pigs): 20%
Pgp mediated digoxin transport (Pgp transporter): did not significantly inhibit
Dose without effect on locomotor activity (rats [5]): up to 129.8 mg/kg
